According to patent EP4501112A1, “PLANT DEFENSE ELICITORS” (Globachem NV, priority 2023, dated 2025):
Like-named read-outs stand apart in the source and are kept apart here.

Columns and labels:
Assay type in all cases: in vivo
[1] = tested on: Winter wheat (cv. Keitum); assay: Biostimulant effect of seed coating on winter wheat (greenhouse, root scans)
Description: [table] Table 13. Biostimulant effect of ammonium pelargonate on winter wheat (cv. Keitum) 14 days after sowing

Leptosphaeria maculans = assay: Seed treatment lab trial against Leptosphaeria maculans in oilseed rape seedlings; details: for Emax: Plenodomus lingam, in Brassica napus, 144 h, 6 days after inoculation, read-out: % Efficacy
Description: [table] Table 8: Efficacy assessment of fatty acids in seed treatment of Leptosphaeria maculans in oilseed rape (variety Helga)

[2] = tested on: Root knot nematode (Meloidogyne graminicola); assay: Root knot nematode gall development on wheat roots after treatment; details: foliar spraying, stock solution 200 x diluted; 400 J2 per plant 24 hours after treatment; 14 days after inoculation
Procedure: DISEASE/PEST: Root knot nematode (Meloidogyne graminicola) CROP: Triticum aestivum APPLICATION: Foliar application EXPERIMENT/TRIAL PROTOCOL: After seed germination, wheat plants were grown individually for 2 weeks in a PVC tube (18 cm height, 3 cm diameter) filled with a substrate of sand and a water-absorbing polymer (DCM Aquaperla). Plants were grown at 24 °C and supplied with Hoagland solution and water 3 times per week. They were treated after 2 weeks. Twenty-four hours after treatment they were inoculated with 400 nematode juveniles (second stage; J2) per plant. 8 individual plants were analyzed per treatment. Evaluation of nematode infection was done 14 days after inoculation. Development of galls on the roots was microscopically observed and counted. No females were observed yet at this early time point, in any of the treatments. The number of galls was reduced in the […], pelargonic acid ([…] decanoic acid (pm4) treated plants. Azelaic acid (pm3) had no effect on gall numbers in the used concentration. FORMULATION USED: […] PM1 is already formulated.

Fusarium culmorum = assay: whole plant or invertebrate; details: for Emax: Fusarium culmorum, in Triticum aestivum, 144 h, read-out: % Efficacy
Spodoptera exigua = assay: S. exigua survival, larval weight and leaf damage on pea plants after foliar spray; set-up: key to plant damage (1 to 5 scale): 0=no damage or no sucking observed; 1=some damage or some sucking observed; 3=half leaf eaten or half of aphids sucking the leaf; 5=no leaf left or all insects sucking and reproducing; details: 0.016 g in 5 mL water with 0.25% tween 20, foliar
Procedure: DISEASE/PEST: Spodoptera exigua CROP: pea plants (Pisum sativum) APPLICATION: FOLIAR EXPERIMENT/TRIAL PROTOCOL: Peas were grown in pots in the greenhouse (4 plants/pot). […] Plants were sprayed with a small handheld sprayer. 5 ml of spraying volume was applied. First instar (L1) Spodoptera larvae were added to the plants 24h after the treatment. Plant damage, larval survival and larval weight were followed up for 12 days. […] Table 4. Effect on survival and leaf damage of S. exigua on P. sativum.

[3] = seed coating 2 L/mt, 14 days after sowing
[4] = seed coating 2 L/mt, 14 days after sowing, relative to untreated check

Compound: CCCCCCCCC(=O)O.N [Ammonium pelargonate]
- root length, surface and volume, tips and forks per plant ([1]; coated seeds compared with untreated seedlings): Seeds coated with ammonium pelargonate showed an increase in root length, surface and volume and an increase in tips and forks per plant. (Table 12)
- Forks (#/plant) [1, 3]: 330.70 #/plant
- Fresh weight (g/plant) [1, 3]: 0.53 g/plant
- Plant height (cm) [1, 3]: 22.5 cm
- Root diameter (mm) [1, 3]: 0.27 mm
- Root length (cm) [1, 3]: 142.1 cm
- Root surface (cm^2) [1, 3]: 11.90 cm^2
- Root volume (cm^3) [1, 3]: 0.08 cm^3
- Tillers (#/plant) [1, 3]: 0.40 #/plant
- Tips (#/plant) [1, 3]: 1585.20 #/plant
- Forks (%UNCK) [1, 4]: 146.65 %UNCK
- Fresh weight (%UNCK) [1, 4]: 99.81 %UNCK
- Plant height (%UNCK) [1, 4]: 100.9 %UNCK
- Root diameter (%UNCK) [1, 4]: 95.08 %UNCK
- Root length (%UNCK) [1, 4]: 131.5 %UNCK
- Root surface (%UNCK) [1, 4]: 124.21 %UNCK
- Root volume (%UNCK) [1, 4]: 117.23 %UNCK
- Tips (%UNCK) [1, 4]: 120.36 %UNCK

Compound: O=C(O)CCCCCCCC(=O)O [Azaleic acid, Azelaic acid]
- Emax (Leptosphaeria maculans; seed treatment 1.52 g/ton): 100%
- Emax (Leptosphaeria maculans; seed treatment 2.28 g/ton): 100%
- Emax (Leptosphaeria maculans; seed treatment 3.04 g/ton): 100%
- Emax (Leptosphaeria maculans; seed treatment 4.56 g/ton): 80%
- Emax (Leptosphaeria maculans; seed treatment 6.08 g/ton): 80%
- Emax (Leptosphaeria maculans; seed treatment 7.60 g/ton): 80%
- number of galls [2]: no effect

Compound: CCCCCCCC(=O)O [Caprylic acid, caprylic acid]
- Emax (Fusarium culmorum; seed treatment 6.08 g/ton): 80%
- Emax (Fusarium culmorum; seed treatment 7.60 g/ton): 80%
- Emax (Leptosphaeria maculans; seed treatment 7.60 g/ton): 80%
- number of galls [2]: reduced

Compound: CCCCCCCCCC(=O)O [Decanoic acid, decanoic acid]
- Emax (Fusarium culmorum; seed treatment 4.56 g/ton): 60%
- Emax (Fusarium culmorum; seed treatment 6.08 g/ton): 60%
- Emax (Fusarium culmorum; seed treatment 7.60 g/ton): 80%
- Emax (Leptosphaeria maculans; seed treatment 2.28 g/ton): 80%
- Larval weight at day 12 (Spodoptera exigua; L1 larvae added 24h after treatment): 196 mg
- Number of larvae after 12 days (Spodoptera exigua; L1 larvae added 24h after treatment, 22 larvae at start): 18
- plant damage (1 to 5 scale) (Spodoptera exigua; followed up for 12 days): 1
- number of galls [2]: reduced

Compound: Ammonium percholate
- % efficacy (Fusarium culmorum; in vivo): 60%
- % efficacy (Leptosphaeria maculans; in vivo): 70%
